Publication PMC5218480 (PLoS ONE, 2017)

System: MV-4-11 cells
Assay: Gene expression microarray analysis (Affymetrix PrimeView) and GSEA
Type: cell-based, human
Design: RFU PODN (11730768_x_at) / Fold change /veh PODN (11730768_x_at) / RFU LINC00158 (11744669_a_at) / Fold change /veh LINC00158 (11744669_a_at) / RFU DUSP10 (11751237_a_at) / Fold change /veh DUSP10 (11751237_a_at) / RFU ID3 (11757404_x_at) / Fold change /veh ID3 (11757404_x_at) / RFU PLEKHG5 (11737974_s_at) / Fold change /veh PLEKHG5 (11737974_s_at) / RFU LRRC4B (11730491_at) / Fold change /veh LRRC4B (11730491_at) / RFU GIMAP4 (11747438_a_at) / Fold change /veh GIMAP4 (11747438_a_at) / RFU KRT8 (11758183_x_at) / Fold change /veh KRT8 (11758183_x_at) / RFU CNN1 (11734310_a_at) / Fold change /veh CNN1 (11734310_a_at) / RFU VPS37D (11726825_at) / Fold change /veh VPS37D (11726825_at) / RFU C10orf10 (11716522_x_at) / Fold change /veh C10orf10 (11716522_x_at) / RFU KIR2DL2 /// KIR2DL4 /// KIR2DL5A /// KIR2DL5B /// KIR2DS1 /// KIR2DS2 /// KIR2DS3 /// KIR2DS4 /// KIR3DL3 /// KIR3DL3 /// KIR3DS1 (11738374_at) / Fold change /veh KIR2DL2 /// KIR2DL4 /// KIR2DL5A /// KIR2DL5B /// KIR2DS1 /// KIR2DS2 /// KIR2DS3 /// KIR2DS4 /// KIR3DL3 /// KIR3DL3 /// KIR3DS1 (11738374_at) / RFU C1QL1 (11718748_at) / Fold change /veh C1QL1 (11718748_at) / RFU TMPRSS4 (11747572_a_at) / Fold change /veh TMPRSS4 (11747572_a_at) / RFU HAMP (11756126_x_at) / Fold change /veh HAMP (11756126_x_at) / RFU RNFT2 (11725882_a_at) / Fold change /veh RNFT2 (11725882_a_at) / RFU NR4A2 (11747474_a_at) / Fold change /veh NR4A2 (11747474_a_at) / RFU ABCC12 (11746883_a_at) / Fold change /veh ABCC12 (11746883_a_at) / RFU TMEM136 (11760407_x_at) / Fold change /veh TMEM136 (11760407_x_at) / RFU CLDN22 /// WWC2 (11732394_at) / Fold change /veh CLDN22 /// WWC2 (11732394_at) / RFU HLA-DPB1 (11760878_x_at) / Fold change /veh HLA-DPB1 (11760878_x_at) / RFU SPINT1 (11716480_a_at) / Fold change /veh SPINT1 (11716480_a_at) / RFU GAP43 (11754022_s_at) / Fold change /veh GAP43 (11754022_s_at) / RFU A4GNT (11735810_at) / Fold change /veh A4GNT (11735810_at) / RFU PRB3 (11715151_x_at) / Fold change /veh PRB3 (11715151_x_at) / RFU TUBB4B (11761932_at) / Fold change /veh TUBB4B (11761932_at) / RFU CAPN14 (11732068_a_at) / Fold change /veh CAPN14 (11732068_a_at) / RFU TMCC2 (11721928_a_at) / Fold change /veh TMCC2 (11721928_a_at) / RFU IRGQ (11745062_a_at) / Fold change /veh IRGQ (11745062_a_at) / RFU FAM174B (11720279_a_at) / Fold change /veh FAM174B (11720279_a_at) / RFU TMPRSS4 (11748680_a_at) / Fold change /veh TMPRSS4 (11748680_a_at) / RFU FAM212B (11763350_a_at) / Fold change /veh FAM212B (11763350_a_at) / RFU PLEKHG5 (11743358_a_at) / Fold change /veh PLEKHG5 (11743358_a_at) / RFU ZSCAN30 (11745921_a_at) / Fold change /veh ZSCAN30 (11745921_a_at) / RFU CMKLR1 (11741424_a_at) / Fold change /veh CMKLR1 (11741424_a_at) / RFU LOC101060620 /// MAPK8IP1 (11723275_at) / Fold change /veh LOC101060620 /// MAPK8IP1 (11723275_at) / RFU SPTSSB (11747773_x_at) / Fold change /veh SPTSSB (11747773_x_at) / RFU PRSS12 (11739890_at) / Fold change /veh PRSS12 (11739890_at) / RFU BIN1 (11741810_x_at) / Fold change /veh BIN1 (11741810_x_at) / RFU WNT11 (11732464_a_at) / Fold change /veh WNT11 (11732464_a_at) / RFU C10orf10 (11716521_a_at) / Fold change /veh C10orf10 (11716521_a_at) / RFU C5orf56 (11738089_at) / Fold change /veh C5orf56 (11738089_at) / RFU CYB561 (11721691_x_at) / Fold change /veh CYB561 (11721691_x_at) / RFU ANKRD19P (11752326_a_at) / Fold change /veh ANKRD19P (11752326_a_at) / RFU OR2T12 /// OR2T33 /// OR2T8 (11738714_s_at) / Fold change /veh OR2T12 /// OR2T33 /// OR2T8 (11738714_s_at) / RFU VCAN (11748164_a_at) / Fold change /veh VCAN (11748164_a_at) / RFU JSRP1 (11732532_at) / Fold change /veh JSRP1 (11732532_at) / RFU KRTAP10-11 (11738290_x_at) / Fold change /veh KRTAP10-11 (11738290_x_at) / RFU MYO3A (11730013_a_at) / Fold change /veh MYO3A (11730013_a_at) / RFU EBF3 (11725865_a_at) / Fold change /veh EBF3 (11725865_a_at) / RFU CAMK2N1 (11719241_x_at) / Fold change /veh CAMK2N1 (11719241_x_at) / RFU C5orf56 (11738088_a_at) / Fold change /veh C5orf56 (11738088_a_at) / RFU OLFML3 (11715873_a_at) / Fold change /veh OLFML3 (11715873_a_at) / RFU LOC100653217 /// NTM (11731650_a_at) / Fold change /veh LOC100653217 /// NTM (11731650_a_at) / RFU MAPK11 (11762145_a_at) / Fold change /veh MAPK11 (11762145_a_at) / RFU FIZ1 (11724087_x_at) / Fold change /veh FIZ1 (11724087_x_at) / RFU OASL (11726364_x_at) / Fold change /veh OASL (11726364_x_at) / RFU SOX15 (11748057_x_at) / Fold change /veh SOX15 (11748057_x_at) / RFU CD79A (11719716_a_at) / Fold change /veh CD79A (11719716_a_at) / RFU HIST1H1D (11736915_at) / Fold change /veh HIST1H1D (11736915_at) / RFU CASKIN2 (11723855_a_at) / Fold change /veh CASKIN2 (11723855_a_at) / RFU LOC730098 (11760151_x_at) / Fold change /veh LOC730098 (11760151_x_at) / RFU OR4N2 (11742367_at) / Fold change /veh OR4N2 (11742367_at) / RFU PRRT2 (11749266_a_at) / Fold change /veh PRRT2 (11749266_a_at) / RFU SNX32 (11753110_a_at) / Fold change /veh SNX32 (11753110_a_at) / RFU CDHR5 (11726645_a_at) / Fold change /veh CDHR5 (11726645_a_at) / RFU RCAN1 (11760418_a_at) / Fold change /veh RCAN1 (11760418_a_at) / RFU FAM167A (11723789_a_at) / Fold change /veh FAM167A (11723789_a_at) / RFU FAM26E (11764081_at) / Fold change /veh FAM26E (11764081_at) / RFU ISYNA1 (11749810_s_at) / Fold change /veh ISYNA1 (11749810_s_at) / RFU ACY1 (11761880_at) / Fold change /veh ACY1 (11761880_at) / RFU 11764098_at / Fold change /veh 11764098_at / RFU SAMD14 (11745864_x_at) / Fold change /veh SAMD14 (11745864_x_at) / RFU NPB (11741838_a_at) / Fold change /veh NPB (11741838_a_at) / RFU TMPRSS6 (11731388_a_at) / Fold change /veh TMPRSS6 (11731388_a_at) / RFU KRTAP10-2 (11738614_at) / Fold change /veh KRTAP10-2 (11738614_at) / RFU ARHGAP8 /// PRR5-ARHGAP8 (11727945_x_at) / Fold change /veh ARHGAP8 /// PRR5-ARHGAP8 (11727945_x_at) / RFU KRTAP5-7 /// NADSYN1 (11734609_at) / Fold change /veh KRTAP5-7 /// NADSYN1 (11734609_at) / RFU RASL12 (11751679_a_at) / Fold change /veh RASL12 (11751679_a_at) / RFU CDKN2B (11736163_a_at) / Fold change /veh CDKN2B (11736163_a_at) / RFU PRF1 (11729649_at) / Fold change /veh PRF1 (11729649_at) / RFU, ZNF638 /// ZNF638-IT1 / Fold change vs veh, ZNF638 /// ZNF638-IT1 / RFU, PANK3 / Fold change vs veh, PANK3 / RFU, SH3YL1 / Fold change vs veh, SH3YL1 / RFU, ZEB2 / Fold change vs veh, ZEB2 / RFU, NRIP1 / Fold change vs veh, NRIP1 / RFU, PTTG1IP / Fold change vs veh, PTTG1IP / RFU, CAPN2 / Fold change vs veh, CAPN2 / RFU, MED14 / Fold change vs veh, MED14 / RFU, SNORA58 / Fold change vs veh, SNORA58 / RFU, C1orf63 / Fold change vs veh, C1orf63 / RFU, LRRFIP1 / Fold change vs veh, LRRFIP1 / RFU, NDUFAF7 / Fold change vs veh, NDUFAF7 / RFU, SLC12A2 / Fold change vs veh, SLC12A2 / RFU, IBTK / Fold change vs veh, IBTK / RFU, ESF1 / Fold change vs veh, ESF1 / Fold change vs veh, TMEM50B / RFU, TAOK1 / Fold change vs veh, TAOK1 / RFU, ACBD3 / Fold change vs veh, ACBD3 / RFU, TMA16 / Fold change vs veh, TMA16 / RFU, RWDD3 / Fold change vs veh, RWDD3 / RFU, BCAT1 / Fold change vs veh, BCAT1 / RFU, EDEM3 / Fold change vs veh, EDEM3 / RFU, TMEM33 / Fold change vs veh, TMEM33 / RFU, WDR75 / Fold change vs veh, WDR75 / RFU, AHCTF1 / Fold change vs veh, AHCTF1 / RFU, TFRC / Fold change vs veh, TFRC / RFU, ZDHHC17 / Fold change vs veh, ZDHHC17 / RFU, NOM1 / Fold change vs veh, NOM1 / RFU, ARL8B / Fold change vs veh, ARL8B / RFU, ZBTB11 / Fold change vs veh, ZBTB11 / RFU, TAMM41 / Fold change vs veh, TAMM41 / RFU, KIAA1704 /// LOC100996395 / Fold change vs veh, KIAA1704 /// LOC100996395 / RFU, ING1 / Fold change vs veh, ING1 / RFU, TRMT61B / Fold change vs veh, TRMT61B / RFU, FUBP3 / Fold change vs veh, FUBP3 / RFU, TP53 / Fold change vs veh, TP53 / RFU, TNKS2 / Fold change vs veh, TNKS2 / RFU, ZFP14 / Fold change vs veh, ZFP14 / RFU, ACTR2 / Fold change vs veh, ACTR2 / RFU, PPP3R1 / Fold change vs veh, PPP3R1 / RFU, PIK3R1 / Fold change vs veh, PIK3R1 / RFU, HNRNPA1 / Fold change vs veh, HNRNPA1 / RFU, RNF170 / Fold change vs veh, RNF170 / RFU, ZNF28 / Fold change vs veh, ZNF28 / RFU, RNGTT / Fold change vs veh, RNGTT / RFU, OGT / Fold change vs veh, OGT / RFU, BRD1 / Fold change vs veh, BRD1 / RFU, MARS / Fold change vs veh, MARS / RFU, ZNF655 / Fold change vs veh, ZNF655 / RFU, FAHD1 / Fold change vs veh, FAHD1 / RFU, BDP1 / Fold change vs veh, BDP1 / RFU, LRRCC1 / Fold change vs veh, LRRCC1 / RFU, ARID1A / Fold change vs veh, ARID1A / RFU, ZNF146 / Fold change vs veh, ZNF146 / RFU, ZNF330 / Fold change vs veh, ZNF330 / RFU, GPN3 / Fold change vs veh, GPN3 / RFU, C9orf123 / Fold change vs veh, C9orf123 / RFU, N4BP2L2 / Fold change vs veh, N4BP2L2 / RFU, ARFIP1 / Fold change vs veh, ARFIP1 / RFU, FAM179B / Fold change vs veh, FAM179B / RFU, BCL10 / Fold change vs veh, BCL10 / RFU, UHRF1BP1L / Fold change vs veh, UHRF1BP1L / RFU, BET1 / Fold change vs veh, BET1 / RFU, CNOT2 / Fold change vs veh, CNOT2 / RFU, ZNF268 / Fold change vs veh, ZNF268 / Fold change vs veh, ZNF507 / RFU, DGCR2 / Fold change vs veh, DGCR2 / RFU, WDSUB1 / Fold change vs veh, WDSUB1 / Fold change vs veh, HSP90B1 /// MIR3652 / RFU, ADSS / Fold change vs veh, ADSS / RFU, GK / Fold change vs veh, GK / RFU, ZNF148 / Fold change vs veh, ZNF148 / RFU, TAF9 / Fold change vs veh, TAF9 / RFU, SLC1A5 / Fold change vs veh, SLC1A5 / RFU, SLMO2 / Fold change vs veh, SLMO2 / RFU, ABCC4 / Fold change vs veh, ABCC4 / RFU, LOC101060439 /// RAP1B / Fold change vs veh, LOC101060439 /// RAP1B / RFU, RFX7 / Fold change vs veh, RFX7 / RFU, GTPBP10 / Fold change vs veh, GTPBP10 / RFU, CNEP1R1 / Fold change vs veh, CNEP1R1 / RFU, BIVM-ERCC5 /// ERCC5 / Fold change vs veh, BIVM-ERCC5 /// ERCC5 / RFU, ILF3 / Fold change vs veh, ILF3 / RFU 11762660_at / Fold change /veh 11762660_at / RFU VCAN (11757783_s_at) / Fold change /veh VCAN (11757783_s_at) / RFU DDX43 (11728927_at) / Fold change /veh DDX43 (11728927_at) / RFU KRT8 (11758188_x_at) / Fold change /veh KRT8 (11758188_x_at) / RFU NKD1 (11759106_at) / Fold change /veh NKD1 (11759106_at) / RFU SRD5A1 (11742802_a_at) / Fold change /veh SRD5A1 (11742802_a_at) / RFU TPSAB1 /// TPSB2 (11721975_s_at) / Fold change /veh TPSAB1 /// TPSB2 (11721975_s_at) / RFU GSTM3 (11746129_a_at) / Fold change /veh GSTM3 (11746129_a_at) / RFU IL23R (11737362_x_at) / Fold change /veh IL23R (11737362_x_at) / RFU TMEM51 (11727254_a_at) / Fold change /veh TMEM51 (11727254_a_at) / RFU PIWIL2 (11732686_x_at) / Fold change /veh PIWIL2 (11732686_x_at) / RFU ORM1 (11744905_x_at) / Fold change /veh ORM1 (11744905_x_at) / RFU CCDC152 (11743942_at) / Fold change /veh CCDC152 (11743942_at) / RFU ECM1 (11717891_a_at) / Fold change /veh ECM1 (11717891_a_at) / RFU IL23R (11748794_a_at) / Fold change /veh IL23R (11748794_a_at) / RFU TNFAIP8L3 (11732012_x_at) / Fold change /veh TNFAIP8L3 (11732012_x_at) / RFU MBOAT4 (11741988_at) / Fold change /veh MBOAT4 (11741988_at) / RFU 11764193_at / Fold change /veh 11764193_at / RFU TMEM53 (11763286_at) / Fold change /veh TMEM53 (11763286_at) / RFU MAGEB2 (11727129_at) / Fold change /veh MAGEB2 (11727129_at) / RFU TMEM200A (11744735_a_at) / Fold change /veh TMEM200A (11744735_a_at) / RFU CCDC152 (11751479_a_at) / Fold change /veh CCDC152 (11751479_a_at) / RFU FAM211A (11726209_a_at) / Fold change /veh FAM211A (11726209_a_at) / RFU RGS16 (11746705_a_at) / Fold change /veh RGS16 (11746705_a_at) / RFU VCAN (11755009_s_at) / Fold change /veh VCAN (11755009_s_at) / RFU RHOB (11743442_s_at) / Fold change /veh RHOB (11743442_s_at) / RFU RGS16 (11720943_a_at) / Fold change /veh RGS16 (11720943_a_at) / RFU RGS16 (11720944_at) / Fold change /veh RGS16 (11720944_at) / RFU, VPS4B / Fold change vs veh, VPS4B / RFU, CREB1 / Fold change vs veh, CREB1 / RFU, DNAJC13 / Fold change vs veh, DNAJC13 / RFU, GNAQ / Fold change vs veh, GNAQ / RFU, CDK5R1 / Fold change vs veh, CDK5R1 / RFU, ZRANB3 / Fold change vs veh, ZRANB3 / RFU, CUL4A / Fold change vs veh, CUL4A / RFU, CCNY / Fold change vs veh, CCNY / RFU, UFL1 / Fold change vs veh, UFL1 / RFU, COG3 / Fold change vs veh, COG3 / RFU, DIAPH2 / Fold change vs veh, DIAPH2 / RFU, SKA2 / Fold change vs veh, SKA2 / RFU, AFF3 / Fold change vs veh, AFF3 / RFU, LMF1 / Fold change vs veh, LMF1 / RFU, IPO11 / Fold change vs veh, IPO11 / RFU, DFFB / Fold change vs veh, DFFB / RFU, FOXP1 / Fold change vs veh, FOXP1 / RFU, CARD8 / Fold change vs veh, CARD8 / RFU, STRN3 / Fold change vs veh, STRN3 / RFU, ADK / Fold change vs veh, ADK / RFU, RASSF2 / Fold change vs veh, RASSF2 / RFU, WIPF1 / Fold change vs veh, WIPF1 / RFU, LARP1B / Fold change vs veh, LARP1B / RFU, RASA1 / Fold change vs veh, RASA1 / RFU, RB1 / Fold change vs veh, RB1 / RFU, PPFIA1 / Fold change vs veh, PPFIA1 / RFU, MAT2A / Fold change vs veh, MAT2A / RFU, CCT5 / Fold change vs veh, CCT5 / RFU, WDR92 / Fold change vs veh, WDR92 / RFU, CUX1 / Fold change vs veh, CUX1 / RFU, TTC7A / Fold change vs veh, TTC7A / RFU, TMEM135 / Fold change vs veh, TMEM135 / RFU, DEPTOR / Fold change vs veh, DEPTOR / RFU, CPM / Fold change vs veh, CPM / RFU, DNAJB6 / Fold change vs veh, DNAJB6 / RFU, CACNA2D3 / Fold change vs veh, CACNA2D3 / RFU, DTX4 / Fold change vs veh, DTX4 / RFU, TFCP2 / Fold change vs veh, TFCP2 / RFU, GMCL1 /// GMCL1P1 / Fold change vs veh, GMCL1 /// GMCL1P1 / RFU, AEBP2 / Fold change vs veh, AEBP2 / RFU, SNHG1 /// SNORD22 /// SNORD25 /// SNORD26 /// SNORD27 /// SNORD28 /// SNORD29 /// SNORD31 / Fold change vs veh, SNHG1 /// SNORD22 /// SNORD25 /// SNORD26 /// SNORD27 /// SNORD28 /// SNORD29 /// SNORD31 / Fold change (Aza/veh), C12orf56 (ProbeSet 11735607_a_at) / Fold change (ACY-1035/veh), C12orf56 (ProbeSet 11735607_a_at) / Fold change (Aza/veh), FGFR1OP (ProbeSet 11751329_s_at) / Fold change (ACY-1035/veh), FGFR1OP (ProbeSet 11751329_s_at) / Fold change (Aza/veh), VPS36 (ProbeSet 11739960_a_at) / Fold change (ACY-1035/veh), VPS36 (ProbeSet 11739960_a_at) / RFU SYPL1 (11715823_x_at) / Fold change /veh SYPL1 (11715823_x_at) / RFU IGFBP7 (11715501_s_at) / Fold change /veh IGFBP7 (11715501_s_at) / RFU REEP3 (11722064_at) / Fold change /veh REEP3 (11722064_at) / RFU IGLL1 (11728026_x_at) / Fold change /veh IGLL1 (11728026_x_at): dose or concentration left out as unconfirmed
Conditions: MV-4-11 cells, 48 hours

Compound: Nc1ccc(-c2cccs2)cc1NC(=O)c1ccc2c(c1)cc(C1CC1)n2CCN1CCOCC1 [ACY-1035]
- Fold change /veh TMPRSS6 (11731388_a_at): 1.10
